# Measured values reported in patent publication US11884627B2, “Compounds and compositions for treating conditions associated with LPA receptor activity” (Lhotse Bio, Inc., priority 2022, dated 2024).
# Where two headings read alike, the source gives them in different places.
# Molecular target: T1, human LPA1 (Homo sapiens, UniProt Q92633)
# T1 construct: expressed in transfected cells; host or cells: CHO-K1
# Assay: In vitro LPA1 calcium flux antagonist assay - Bioduro protocol
# Format: cell-based
# Details: CHO-K1 cells overexpressing human LPA1 and G15a, LPA challenge at EC80
# Description: In Vitro LPA1 Calcium Flux Antagonist Assay—Bioduro Protocol
# CHO-K1 cells overexpressing human LPA1 and G15a were seeded at a total volume of 20 μL (15000 cells/well) into Matrigel pre-coated 384-well plates (corning −3764) and incubated at 37° C. After overnight incubation, the cells were serum starved for 4 h. Assays were performed in dye loading buffer containing 1× Fluo-8 AM (AAT Bioquest, 21080) and 2.5 mM probenecid (Thermo Fisher, 36400) in HBSS/20 mM Hepes. After cell starvation, the medium was replaced with 20 μL of dye loading buffer and incubated at 37° C., for 30 min. Then 5 μL of 5× compound titrated in dye loading buffer was added to the cells and incubated for 30 min followed by LPA challenge at EC80. Calcium mobilization was measured on a FLIPR Tetra (MSD). For LPA EC80 determination, starved cells were incubated with 20 μL of dye loading buffer for 1 h, then 5 μL of 5×LPA titrated in dye loading buffer was added to the cells. Calcium signals induced by LPA was monitors on a FLIPR.
# Percentage inhibition is calculated using the following formula: % Inhibition=100%×(1−(mean RFU of test sample−mean RFU of DMSO)/(mean RFU of LPA control−mean RFU of DMSO)).
# Table B3 and Table B4 show the biological activity of compounds in in vitro LPA1 Calcium flux antagonist assay—Bioduro protocol.
# [1] = calcium mobilization on FLIPR Tetra, read-out: IC50
# [2] = Table B3, read-out: Activity (IC50 class)
# T1 sequence (Q92633 whole entry): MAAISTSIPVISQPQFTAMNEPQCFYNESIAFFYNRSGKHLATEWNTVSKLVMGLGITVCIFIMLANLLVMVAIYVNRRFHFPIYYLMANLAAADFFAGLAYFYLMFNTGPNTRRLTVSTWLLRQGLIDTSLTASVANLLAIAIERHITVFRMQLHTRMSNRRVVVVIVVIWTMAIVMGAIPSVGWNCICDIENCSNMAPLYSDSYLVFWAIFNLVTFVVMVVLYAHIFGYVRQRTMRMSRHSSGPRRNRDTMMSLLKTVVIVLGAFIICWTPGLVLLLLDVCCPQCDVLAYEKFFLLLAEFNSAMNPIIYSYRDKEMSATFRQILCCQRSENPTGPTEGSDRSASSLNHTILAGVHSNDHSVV
SMILES,IC50 [1],IC50 [2]
COc1cc(-c2ccc(NC3(C(=O)O)CCNCC3)cc2COC2Cc3ccccc3C2)cc(OC)c1C [Compound 136],885 nM,> 1000 nM
CCOC1CC(Nc2ccc(-c3cc(OC)c(C)c(OC)c3)c(COC3Cc4ccccc4C3)c2)(C(=O)O)C1 (stereo not shown) [Compound 137],45.2 nM,< 100 nM
COc1cc(-c2ccc(NC3(C(=O)O)CCN(C)CC3)cc2COC2CCCC2)cc(OC)c1C [Compound 138],174 nM,100 to 1000 nM
COc1cc(-c2ccc(NC3(C(=O)O)CCN(C(C)=O)CC3)cc2COC2CCCC2)cc(OC)c1C [Compound 139],353 nM,100 to 1000 nM
COc1cc(-c2ccc(NC3(C(=O)O)CCNCC3)cc2COC2CCCC2)cc(OC)c1C [Compound 142],> 10000 nM,> 1000 nM
COCC1CC(Nc2ccc(-c3cc(OC)c(C)c(OC)c3)c(COC3Cc4ccccc4C3)c2)(C(=O)O)C1 (stereo not shown) [Compound 143],53.8 nM,< 100 nM
COC(=O)N1CC(Nc2ccc(-c3cc(OC)c(C)c(OC)c3)c(COC3CCCC3)c2)(C(=O)O)C1 [Compound 144],59.5 nM,< 100 nM
COc1cc(-c2ccc(NC3(C(=O)O)CCOCC3)cc2COC2CCCC2)ccc1C [Compound 145],486 nM,100 to 1000 nM
COc1cc(OC)cc(-c2ccc(NC3(C(=O)O)CCOCC3)cc2COC2CCCC2)c1 [Compound 146],77.2 nM,< 100 nM
COc1cc(-c2c(C)cc(NC3(C(=O)O)CCOCC3)cc2COC2CCCC2)c(C)c(OC)c1C [Compound 149],88 nM,< 100 nM
COc1cc(-c2ccc(NC3(C(=O)O)CCOCC3)cc2COCC2(C#N)CC2)cc(OC)c1C [Compound 151],1580 nM,> 1000 nM
"COc1cc(-c2ccc(NC3(C(=O)O)CCOCC3)cc2COC2CCCC2)cc(OC)n1 [Compound 152, 4-((3-((cyclopentyloxy)methyl)-4-(2,6-dimethoxypyridin-4-yl)phenyl)amino)tetrahydro-2H-pyran-4-carboxylic acid]",390 nM,100 to 1000 nM
COc1cc(-c2ccc(NC3(C(=O)O)CCOCC3)cc2CNC2CCCC2)cc(OC)c1C [Compound 153],> 10000 nM,> 1000 nM
COC(=O)N1CCC(Nc2cc(C)c(-c3cc(OC)cc(OC)c3)c(COC3CCCC3)c2)(C(=O)O)CC1 [Compound 154],224 nM,100 to 1000 nM
CCOC(=O)N1CCC(Nc2cc(C)c(-c3cc(OC)cc(OC)c3)c(COC3CCCC3)c2)(C(=O)O)CC1 [Compound 155],252 nM,100 to 1000 nM
COc1cc(OC)cc(-c2c(C)cc(NC3(C(=O)O)CCOCC3)cc2COC2CCCC2)c1 [Compound 156],162 nM,100 to 1000 nM

SMILES,IC50 [1],IC50 [2]
COC(=O)N1CCC(Nc2ccc(-c3cc(OC)cc(OC)c3)c(COC3CCCC3)c2)(C(=O)O)CC1 [Compound 157],112 nM,100 to 1000 nM
COC(=O)N1CCC(Nc2cc(C)c(-c3cc(C#N)cc(OC)c3)c(COC3CCCC3)c2)(C(=O)O)CC1 [Compound 161],976 nM,100 to 1000 nM
COc1cc(-c2c(C)cc(OC3(C(=O)O)CCOCC3)cc2COC2CCCC2)cc(OC)c1C [Compound 163],382 nM,100 to 1000 nM
COc1cc(O)nc(-c2c(C)cc(NC3(C(=O)O)CCOCC3)cc2COC2CCCC2)c1 [Compound 164],> 10000 nM,> 1000 nM
COc1cc(OC)cc(-c2ccc(NC3(C(=O)O)CCOCC3)cc2CO[C@H]2CCC[C@H]2NC(C)=O)c1 [Compound 169],> 10000 nM,> 1000 nM
COc1cc(OC)nc(-c2c(C)cc(NC3(C(=O)O)CCOCC3)cc2COC2CCCC2)c1 [Compound 170],1500 nM,> 1000 nM
COC(=O)N1CCC(Nc2cc(C)c(-c3cc(OC)ccn3)c(COC3CCCC3)c2)(C(=O)O)CC1 [Compound 171],> 10000 nM,> 1000 nM
COc1cccc(-c2ccc(NC3(C(=O)O)CCOCC3)cc2COC2CCCC2)c1C [Compound 172],82.1 nM,< 100 nM
COc1ccc(C)c(-c2ccc(NC3(C(=O)O)CCOCC3)cc2COC2CCCC2)c1 [Compound 173],314 nM,100 to 1000 nM
COc1cc(-c2c(COC3CCCC3)cc(NC3(C(=O)O)CCOCC3)cc2OC)cc(OC)c1C [Compound 175],175 nM,100 to 1000 nM
COCC(=O)N1CCC(Nc2cc(C)c(-c3cc(OC)cc(OC)c3)c(COC3CCCC3)c2)(C(=O)O)CC1 [Compound 176],883 nM,100 to 1000 nM
COc1cc(OC)nc(-c2c(C)cc(NC3(C(=O)O)CCOCC3)cc2COC2CCCC2)n1 [Compound 178],1320 nM,> 1000 nM
COc1cc(OC)c(C)c(-c2c(F)cc(NC3(C(=O)O)CCOCC3)cc2COC2CCCC2)c1 [Compound 180],39.7 nM,< 100 nM
COc1c(C)ccc(-c2ccc(NC3(C(=O)O)CCOCC3)cc2COC2CCCC2)c1C [Compound 181],55.2 nM,< 100 nM
COc1cc(OC)cc(-c2c(C)cc(NC3(C(=O)O)Cc4ccccc4C3)cc2COC2CCCC2)c1 [Compound 188],2730 nM,> 1000 nM
COc1c(C(C)=O)ccc(-c2ccc(NC3(C(=O)O)CCOCC3)cc2COC2CCCC2)c1C [Compound 189],52.5 nM,< 100 nM

# Molecules with a lower IC50 [1], results first:
IC50 [1],IC50 [2],SMILES
34.3 nM,< 100 nM,COc1cc(-c2ccc(OC3(C(=O)O)CCOCC3)cc2COC2CCCC2)c(C)c(OC)c1C [Compound 191]
33.2 nM,< 100 nM,COc1cc(-c2c(Cl)cc(NC3(C(=O)O)CCOCC3)cc2COC2CCCC2)cc(OC)c1C [Compound 184]
31.9 nM,< 100 nM,"COc1cc(-c2ccc(NC3(C(=O)O)CCOCC3)cc2COC2CCCC2)c2c(c1C)OCC2 [Compound 193, 4-((3-((cyclopentyloxy)methyl)-4-(6-methoxy-7-methyl-2,3-dihydrobenzofuran-4-yl)phenyl)amino)tetrahydro-2H-pyran-4-carboxylic acid]"
29.3 nM,< 100 nM,COc1cc(OC)c(Cl)c(-c2c(F)cc(NC3(C(=O)O)CCOCC3)cc2COC2CCCC2)c1 [Compound 174]
28.8 nM,< 100 nM,"COC(=O)N1CCC(Nc2ccc(-c3cc(OC)c(C)c(OC)c3)c(COC3CCCC3)c2)(C(=O)O)CC1 [Compound 140, 4-((2-((cyclopentyloxy)methyl)-3′,5′-dimethoxy-4′-methyl-[1,1′-biphenyl]-4-yl)amino)-1-(methoxycarbonyl)piperidine-4-carboxylic acid]"
27.8 nM,< 100 nM,COc1cc(-c2ccc(NC3(C(=O)O)CCOCC3)cc2COC2Cc3ccccc3C2)cc(OC)c1C(C)O (stereo not shown) [Compound 135]
27.6 nM,< 100 nM,COc1cc(-c2c(F)cc(NC3(C(=O)O)CCOCC3)cc2COC2CCCC2)c(F)c(OC)c1C [Compound 168]
24.9 nM,< 100 nM,COc1cc(OC)c(C)c(-c2ccc(NC3(C(=O)O)CCOCC3)cc2COC2CCCC2)c1 [Compound 179]
24.5 nM,< 100 nM,"COc1cc(-c2c(C)cc(NC3(C(=O)O)CCOCC3)cc2COC2CCCC2)cc(OC)c1C [Compound 141, 4-((2-((cyclopentyloxy)methyl)-3′,5′-dimethoxy-4′,6-dimethyl-[1,1′-biphenyl]-4-yl)amino) tetrahydro-2H-pyran-4-carboxylic acid]"
20.9 nM,< 100 nM,"COc1cc(-c2c(F)cc(NC3(C(=O)O)CCOCC3)cc2COC2CCCC2)cc(OC)c1C [Compound 147, 4-((2-((cyclopentyloxy)methyl)-6-fluoro-3′,5′-dimethoxy-4′-methyl-[1,1′-biphenyl]-4-yl)amino)tetrahydro-2H-pyran-4-carboxylic acid]"
15.1 nM,< 100 nM,"COc1cc(-c2ccc(OC3(C(=O)O)CCOCC3)cc2COC2CCCC2)c(Cl)c(OC)c1C [Compound 192, 4-((2′-chloro-2-((cyclopentyloxy)methyl)-3′,5′-dimethoxy-4′-methyl-[1,1′-biphenyl]-4-yl)oxy)tetrahydro-2H-pyran-4-carboxylic acid]"
10.9 nM,< 100 nM,COc1cc(-c2ccc(NC3(C(=O)O)CCOCC3)cc2COC2CCCC2)c(F)c(OC)c1C [Compound 165]
10.5 nM,< 100 nM,"COc1cc(-c2ccc(NC3(C(=O)O)CCOCC3)cc2COC2CCCC2)c(C)c(OC)c1C [Compound 148, 4-((2-((cyclopentyloxy)methyl)-3′,5′-dimethoxy-2′,4′-dimethyl-[1,1′-biphenyl]-4-yl)amino)tetrahydro-2H-pyran-4-carboxylic acid]"
9.7 nM,< 100 nM,"COc1cc(-c2ccc(NC3(C(=O)O)CCOCC3)cc2COC2CC3CC3C2)cc(OC)c1C (stereo not shown) [Compound 182, 4-((2-((bicyclo[3.1.0]hexan-3-yloxy)methyl)-3′,5′-dimethoxy-4′-methyl-[1,1′-biphenyl]-4-yl)amino)tetrahydro-2H-pyran-4-carboxylic acid]"
9.31 nM,< 100 nM,COc1cc(-c2ccc(NC3(C(=O)O)CCOCC3)cc2COC2CCCC2)c(Cl)c(OC)c1C [Compound 166]
